According to patent US5595983A, “Substituted piperazine 2-carboxylic acids useful in the treatment of central nervous system disorders” (British Technology Group Limited, priority 1984, dated 1997):
Like-named read-outs stand apart in the source and are kept apart here.

Tests used:
[1] = test system: 3-mercaptopropionate-induced convulsions; assay: Anticonvulsant activity against 3-mercaptopropionate-induced convulsions in mice; format: in vivo; conditions: for Anti-convulsant Activity (mice): relative anticonvulsant potency: mice injected with 3-MP 100 mg/kg, 3-MP and phosphonates subcutaneously, relative to AP7 = 1.0
Description: ^2 Relative anticonvulsant potencies of substances in mice injected
with 3mercaptopropionic acid (3MP), 100 mg/kg; 3MP and the phosphonates

[2] = test system: motoneurones in the spinal cord; assay: Depression of monosynaptic (MS) and polysynaptic (PS) excitation of motoneurones in isolated hemisected spinal cord, elicited by dorsal root stimulation; format: cell-based, rat; conditions: for inhibition at 500 µM: test conc. 500 μM; for inhibition at 100 µM: test conc. 100 μM
Description: To evaluate actions of substances at amino acid receptors on nerve cells (neurones), the substances may be tested on spinal cord neurones, which have similar characteristics to nerve cells in the brain.
^1 Monosynaptic (MS) and polysynaptic (PS) excitation of motoneurones
in the spinal cord from 4-8 day old rats was elicited by electrical
stimulation of a dorsal root and recorded from the corresponding ventral
root. Figures relate to the depression of the magnitude of the two
components as measured respectively from oscilloscope traces and chart

neuronal NMDA receptors = assay: Relative potency as antagonists of NMDA-induced motoneuronal depolarization in spinal cord of 4-day-old rat; format: cell-based; conditions: 4-day-old rat spinal cord; bath administration; relative to AP5 = 1.0 (higher = more potent)
Description: (§1) ^1 Relative potencies of substances as antagonists of NMDAinduced
(§2) motoneuronal depolarization and as depressants of spontaneous and dorsal
(§3) rootevoked ventral root synaptic potentials in spinal cord of 4day-old
(§4) rat; bath administration of drugs.
(§5) 1 Relative potencies of substances as antagonists of NMDA-induced motoneuronal depolarization and as depressants of spontaneous and dorsal root-evoked ventral root synaptic potentials in spinal cord of 4-day-old rat; bath administration of drugs.

[3] = test system: ventral root synaptic potentials in spinal cord; assay: Relative potency as depressants of spontaneous and dorsal root-evoked ventral root synaptic potentials in spinal cord of 4-day-old rat; format: cell-based; conditions: 4-day-old rat spinal cord, bath administration, relative to AP5 = 1.0
Description: as §1, §2, §3, §4, §5

[4] = test system: N-methyl-D-aspartate (NMDA) receptors; assay: Reversal of NMDA-induced motoneuronal depolarization, isolated 4-8 day old rat spinal cord; format: cell-based; conditions: Table 2
[5] = test system: quisqualate (Q) receptors; assay: Reversal of quisqualate-induced motoneuronal depolarization, isolated 4-8 day old rat spinal cord; format: cell-based; conditions: Table 2
kainate (K) receptors = assay: Reversal of kainate-induced motoneuronal depolarization, isolated 4-8 day old rat spinal cord; format: cell-based; conditions: Table 2
[6] = monosynaptic component, 4-8 day old rat spinal cord, read-out: Synaptic Excitation Percent depression MS
[7] = polysynaptic component, 4-8 day old rat spinal cord, read-out: Synaptic Excitation Percent depression PS

NC(CCCP(=O)(O)O)C(=O)O (racemic) [AP5, 2-amino-5-phosphonopentanoic acid, reference compound]
Anti-convulsant Activity (mice): relative anticonvulsant potency [1]: 0.1 | inhibition at 2 µM ([2]; polysynaptic component, test conc. 2 μM, 4-8 day old rat spinal cord, read-out: Synaptic Excitation Percent depression PS): 27%

NC(CCCCCP(=O)(O)O)C(=O)O (racemic) [AP7, 2-amino-7-phosphonoheptanoic acid, reference compound]
Depression of NMDA-induced excitation in rat spinal cord: relative potency (NMDA) (neuronal NMDA receptors): 0.75 | inhibition at 3 µM ([2]; polysynaptic component, test conc. 3 μM, 4-8 day old rat spinal cord, read-out: Synaptic Excitation Percent depression PS): 28% | Depression of synaptic excitation in rat spinal cord: relative potency (Synaptic) [3]: 0.75

O=C(O)C1CN(CCCP(=O)(O)O)CCN1 (racemic) [CPP, 3-((±)-2-carboxypiperazin-4-yl)propyl-1-phosphonic acid]
Anticonvulsant activity compared with AP7 ([1]; 3-mercaptopropionate-induced convulsions in mice, from Table 3): significantly higher anticonvulsant activity than AP7 | Anti-convulsant Activity (mice): relative anticonvulsant potency [1]: 2.5-5.0 | Potency as antagonist of NMDA compared with AP5 and AP7 [4]: more potent | Depression of NMDA-induced excitation in rat spinal cord: relative potency (NMDA) (neuronal NMDA receptors): 6 | Potency as antagonist of polysynaptic spinal excitation compared with AP5 and AP7 ([2]; Table 2): more potent | inhibition at 0.5 µM ([2]; polysynaptic component, test conc. 0.5 μM (printed 0 · 5), 4-8 day old rat spinal cord, read-out: Synaptic Excitation Percent depression PS): 28% | Depression of synaptic excitation in rat spinal cord: relative potency (Synaptic) [3]: 4

O=C(O)C1CN(CCCS(=O)(=O)O)CCN1 (racemic) [CPS, 3-(±)-2-carboxypiperazin-4-yl)-propane-1-sulphonic acid]
inhibition at 500 µM [2, 6]: 6% | inhibition at 500 µM [2, 7]: 32%

O=C(O)C1NCCN(C(=O)c2ccc(Br)cc2)C1C(=O)O (centres unmarked) [BBP, 4-(4-bromobenzoyl)-piperazine-2,3-dicarboxylic acid]
Potency as antagonist of quisqualate-induced depolarizations compared with γDGG [5]: more potent antagonist | Potency as depressant of monosynaptic excitation compared with γDGG ([2]; Table 2): more potent as a depressant of monosynaptic excitation | inhibition at 100 µM [2, 6]: 24% | inhibition at 100 µM [2, 7]: 8% | Potency as antagonist of kainate-induced depolarizations compared with γDGG (kainate (K) receptors): more potent antagonist

N[C@H](CCC(=O)NCC(=O)O)C(=O)O [γDGG, γ-D-glutamylglycine, reference compound]
inhibition at 700 µM ([2]; monosynaptic component, test conc. 700 μM, 4-8 day old rat spinal cord, read-out: Synaptic Excitation Percent depression MS): 24%
